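Assay format: 96-well plates, 48-hour exposure. The concentration for 50% growth inhibition is given as GI50.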 Active and inactive are the calls of the source. No stated cut-off is given here; in the data, active = GI50 up to about 1.1 µM and inactive = higher.
Key:
Test in all cases: DTP human tumour cell line panel, 48 h
NCI-H226 = tested on: NCI-H226
SR = tested on: SR
UACC-257 = tested on: UACC-257
OVCAR-4 = tested on: OVCAR-4
HCC 2998 = tested on: HCC 2998
HOP-92 = tested on: HOP-92
HL-60 = tested on: HL-60
SNB-78 = tested on: SNB-78
NCI-H23 = tested on: NCI-H23
SF-539 = tested on: SF-539
SK-MEL-5 = tested on: SK-MEL-5
RPMI-8226 = tested on: RPMI-8226
KM12 = tested on: KM12
LXFL 529 = tested on: LXFL 529
UACC-62 = tested on: UACC-62
Malme-3M = tested on: Malme-3M
OVCAR-8 = tested on: OVCAR-8
SN12C = tested on: SN12C
A549 = tested on: A549
HT-29 = tested on: HT-29
OVCAR-5 = tested on: OVCAR-5
A498 = tested on: A498
HCT-15 = tested on: HCT-15
TK-10 = tested on: TK-10
DMS-273 = tested on: DMS-273
SNB-19 = tested on: SNB-19
EKVX = tested on: EKVX
SNB-75 = tested on: SNB-75
HOP-62 = tested on: HOP-62
MOLT-4 = tested on: MOLT-4
IGROV-1 = tested on: IGROV-1
RXF 393 = tested on: RXF 393
HCT-116 = tested on: HCT-116
LOX IMVI = tested on: LOX IMVI
OVCAR-3 = tested on: OVCAR-3
DLD-1 = tested on: DLD-1
M19-MEL = tested on: M19-MEL
SK-MEL-2 = tested on: SK-MEL-2
UO-31 = tested on: UO-31
CAKI-1 = tested on: CAKI-1
KM-20L2 = tested on: KM-20L2
HOP-18 = tested on: HOP-18
786-0 = tested on: 786-0
SW-620 = tested on: SW-620
DMS-114 = tested on: DMS-114
CCRF-CEM = tested on: CCRF-CEM
K562 = tested on: K562
SK-MEL-28 = tested on: SK-MEL-28
NCI-H460 = tested on: NCI-H460
SF-268 = tested on: SF-268
ACHN = tested on: ACHN
SF-295 = tested on: SF-295
M14 = tested on: M14
XF498 = tested on: XF498
NCI-H522 = tested on: NCI-H522
SK-OV-3 = tested on: SK-OV-3
U-251 = tested on: U-251
COLO 205 = tested on: COLO 205

**Q.** COc1ccc(/C=C2\CCC(CCN3CCOCC3)C2=O)cc1 (configuration not stated) was tested. Which GI50 (NCI-H226) did it give?
**A.** > 100 µM (inactive)

**Q.** And the GI50 (SR)?
**A.** > 100 µM (inactive)

**Q.** What about the GI50 (UACC-257) of the same compound?
**A.** > 100 µM (inactive)

**Q.** What about the GI50 (OVCAR-4) of the same compound?
**A.** > 100 µM (inactive)

**Q.** And the GI50 (HCC 2998)?
**A.** > 100 µM (inactive)

**Q.** What about the GI50 (HOP-92) of the same compound?
**A.** > 100 µM (inactive)

**Q.** What about the GI50 (HL-60) of the same compound?
**A.** > 100 µM (inactive)

**Q.** What about the GI50 (SNB-78) of the same compound?
**A.** > 100 µM (inactive)

**Q.** What about the GI50 (NCI-H23) of the same compound?
**A.** > 100 µM (inactive)

**Q.** And the GI50 (SF-539)?
**A.** > 100 µM (inactive)

**Q.** And the GI50 (SK-MEL-5)?
**A.** > 100 µM (inactive)

**Q.** And the GI50 (RPMI-8226)?
**A.** > 100 µM (inactive)

**Q.** And the GI50 (KM12)?
**A.** > 100 µM (inactive)

**Q.** And the GI50 (LXFL 529)?
**A.** > 100 µM (inactive)

**Q.** And the GI50 (UACC-62)?
**A.** > 100 µM (inactive)

**Q.** What about the GI50 (Malme-3M) of the same compound?
**A.** > 100 µM (inactive)

**Q.** What about the GI50 (OVCAR-8) of the same compound?
**A.** > 100 µM (inactive)

**Q.** What about the GI50 (SN12C) of the same compound?
**A.** > 100 µM (inactive)

**Q.** And the GI50 (A549)?
**A.** > 100 µM (inactive)

**Q.** And the GI50 (HT-29)?
**A.** > 100 µM (inactive)

**Q.** What about the GI50 (OVCAR-5) of the same compound?
**A.** > 100 µM (inactive)

**Q.** What about the GI50 (A498) of the same compound?
**A.** > 100 µM (inactive)

**Q.** What about the GI50 (HCT-15) of the same compound?
**A.** > 100 µM

**Q.** What about the GI50 (TK-10) of the same compound?
**A.** > 100 µM (inactive)

**Q.** And the GI50 (DMS-273)?
**A.** > 100 µM (inactive)

**Q.** What about the GI50 (SNB-19) of the same compound?
**A.** > 100 µM (inactive)

**Q.** What about the GI50 (EKVX) of the same compound?
**A.** > 100 µM (inactive)

**Q.** And the GI50 (SNB-75)?
**A.** > 100 µM (inactive)

**Q.** What about the GI50 (HOP-62) of the same compound?
**A.** > 100 µM (inactive)

**Q.** What about the GI50 (MOLT-4) of the same compound?
**A.** > 100 µM (inactive)

**Q.** And the GI50 (IGROV-1)?
**A.** > 100 µM (inactive)

**Q.** And the GI50 (RXF 393)?
**A.** > 100 µM (inactive)

**Q.** And the GI50 (HCT-116)?
**A.** > 100 µM (inactive)

**Q.** And the GI50 (LOX IMVI)?
**A.** > 100 µM (inactive)

**Q.** And the GI50 (OVCAR-3)?
**A.** > 100 µM (inactive)

**Q.** And the GI50 (DLD-1)?
**A.** > 100 µM (inactive)

**Q.** What about the GI50 (M19-MEL) of the same compound?
**A.** > 100 µM (inactive)

**Q.** And the GI50 (SK-MEL-2)?
**A.** > 100 µM (inactive)

**Q.** And the GI50 (UO-31)?
**A.** > 100 µM (inactive)

**Q.** What about the GI50 (CAKI-1) of the same compound?
**A.** > 100 µM (inactive)

**Q.** What about the GI50 (KM-20L2) of the same compound?
**A.** > 100 µM (inactive)

**Q.** And the GI50 (HOP-18)?
**A.** > 100 µM (inactive)

**Q.** And the GI50 (786-0)?
**A.** > 100 µM (inactive)

**Q.** What about the GI50 (SW-620) of the same compound?
**A.** > 100 µM (inactive)

**Q.** And the GI50 (DMS-114)?
**A.** > 100 µM (inactive)

**Q.** What about the GI50 (CCRF-CEM) of the same compound?
**A.** > 100 µM (inactive)

**Q.** What about the GI50 (K562) of the same compound?
**A.** > 100 µM (inactive)

**Q.** And the GI50 (SK-MEL-28)?
**A.** > 100 µM (inactive)

**Q.** And the GI50 (NCI-H460)?
**A.** > 100 µM (inactive)

**Q.** What about the GI50 (SF-268) of the same compound?
**A.** > 100 µM (inactive)

**Q.** And the GI50 (ACHN)?
**A.** > 100 µM (inactive)

**Q.** What about the GI50 (SF-295) of the same compound?
**A.** > 100 µM (inactive)

**Q.** What about the GI50 (M14) of the same compound?
**A.** > 100 µM (inactive)

**Q.** What about the GI50 (XF498) of the same compound?
**A.** > 100 µM (inactive)

**Q.** CCC12C=CCN3CC[C@]4(C(=C(C(=O)OC)[C@@H]1Nc1ncnc5c1ncn5C1OC(COC(C)=O)C(OC(C)=O)C1OC(C)=O)Nc1ccccc14)C32 (some centres not stated) was tested. Which GI50 (NCI-H226) did it give?
**A.** 2.36 µM (inactive)

**Q.** What about the GI50 (SR) of the same compound?
**A.** 2.34 µM (inactive)

**Q.** And the GI50 (UACC-257)?
**A.** 5.3 µM (inactive)

**Q.** What about the GI50 (NCI-H522) of the same compound?
**A.** 1.7 µM (inactive)

**Q.** What about the GI50 (OVCAR-4) of the same compound?
**A.** 2.42 µM (inactive)

**Q.** And the GI50 (HCC 2998)?
**A.** 1.82 µM (inactive)

**Q.** And the GI50 (HOP-92)?
**A.** 2.39 µM (inactive)

**Q.** What about the GI50 (HL-60) of the same compound?
**A.** 2.65 µM (inactive)

**Q.** What about the GI50 (SNB-78) of the same compound?
**A.** 3.15 µM (inactive)

**Q.** And the GI50 (NCI-H23)?
**A.** 1.97 µM (inactive)

**Q.** What about the GI50 (SF-539) of the same compound?
**A.** 2.18 µM (inactive)

**Q.** What about the GI50 (SK-MEL-5) of the same compound?
**A.** 2.55 µM (inactive)

**Q.** And the GI50 (RPMI-8226)?
**A.** 3.27 µM (inactive)

**Q.** And the GI50 (KM12)?
**A.** 2.42 µM (inactive)

**Q.** What about the GI50 (LXFL 529) of the same compound?
**A.** 2.4 µM (inactive)

**Q.** What about the GI50 (UACC-62) of the same compound?
**A.** 3.11 µM (inactive)

**Q.** And the GI50 (Malme-3M)?
**A.** 4.9 µM (inactive)

**Q.** What about the GI50 (OVCAR-8) of the same compound?
**A.** 2.18 µM (inactive)

**Q.** And the GI50 (SN12C)?
**A.** 2.01 µM (inactive)

**Q.** What about the GI50 (A549) of the same compound?
**A.** 3.53 µM (inactive)

**Q.** What about the GI50 (HT-29) of the same compound?
**A.** 2.23 µM (inactive)

**Q.** And the GI50 (SK-OV-3)?
**A.** 2.36 µM (inactive)

**Q.** And the GI50 (OVCAR-5)?
**A.** 3.47 µM (inactive)

**Q.** And the GI50 (U-251)?
**A.** 2.19 µM (inactive)

**Q.** What about the GI50 (A498) of the same compound?
**A.** 2.04 µM (inactive)

**Q.** And the GI50 (HCT-15)?
**A.** 3.04 µM

**Q.** And the GI50 (TK-10)?
**A.** 2.87 µM (inactive)

**Q.** And the GI50 (DMS-273)?
**A.** 2.75 µM (inactive)

**Q.** What about the GI50 (SNB-19) of the same compound?
**A.** 5.62 µM (inactive)

**Q.** And the GI50 (EKVX)?
**A.** 4.78 µM (inactive)

**Q.** And the GI50 (SNB-75)?
**A.** 2.43 µM (inactive)

**Q.** And the GI50 (HOP-62)?
**A.** 2.84 µM (inactive)

**Q.** What about the GI50 (MOLT-4) of the same compound?
**A.** 3.3 µM (inactive)

**Q.** And the GI50 (IGROV-1)?
**A.** 2.85 µM (inactive)

**Q.** What about the GI50 (RXF 393) of the same compound?
**A.** 2 µM (inactive)

**Q.** What about the GI50 (HCT-116) of the same compound?
**A.** 2.82 µM (inactive)

**Q.** What about the GI50 (LOX IMVI) of the same compound?
**A.** 1.75 µM (inactive)

**Q.** What about the GI50 (OVCAR-3) of the same compound?
**A.** 1.98 µM (inactive)

**Q.** What about the GI50 (DLD-1) of the same compound?
**A.** 2.69 µM (inactive)

**Q.** What about the GI50 (M19-MEL) of the same compound?
**A.** 1.99 µM (inactive)

**Q.** And the GI50 (SK-MEL-2)?
**A.** 3.44 µM (inactive)

**Q.** What about the GI50 (UO-31) of the same compound?
**A.** 5.62 µM (inactive)

**Q.** And the GI50 (CAKI-1)?
**A.** 3.42 µM (inactive)

**Q.** And the GI50 (KM-20L2)?
**A.** 2.71 µM (inactive)

**Q.** And the GI50 (HOP-18)?
**A.** 7.64 µM (inactive)

**Q.** And the GI50 (786-0)?
**A.** 1.94 µM (inactive)

**Q.** What about the GI50 (SW-620) of the same compound?
**A.** 2.45 µM (inactive)

**Q.** What about the GI50 (DMS-114) of the same compound?
**A.** 1.91 µM (inactive)

**Q.** What about the GI50 (CCRF-CEM) of the same compound?
**A.** 2.45 µM (inactive)

**Q.** And the GI50 (K562)?
**A.** 3.18 µM (inactive)

**Q.** And the GI50 (SK-MEL-28)?
**A.** 3.52 µM (inactive)

**Q.** And the GI50 (NCI-H460)?
**A.** 2.51 µM (inactive)

**Q.** What about the GI50 (SF-268) of the same compound?
**A.** 2.05 µM (inactive)

**Q.** And the GI50 (ACHN)?
**A.** 2.34 µM (inactive)

**Q.** What about the GI50 (SF-295) of the same compound?
**A.** 3.05 µM (inactive)

**Q.** What about the GI50 (M14) of the same compound?
**A.** 2.62 µM (inactive)

**Q.** And the GI50 (COLO 205)?
**A.** 1.88 µM (inactive)

**Q.** And the GI50 (XF498)?
**A.** 3 µM (inactive)

Reference: ChEMBL document CHEMBL1201862, “PubChem BioAssay data set” (2004)
